US20240156832A1, “METHODS OF METABOLIZING METOPIMAZINE AND ITS SALTS” (Neurogastrx, Inc., priority 2020, published 2024)

Key:
[1] = both, human, in vivo, po, 60 mg
Procedure: The clinical study was conducted at Biotrial Rennes (Rennes, France), in accordance with the Declaration of Helsinki. The study (NG100-101) was a double-blind, placebo-controlled, ascending single- and multiple-dose study of the safety, tolerability, and pharmacokinetics of metopimazine administered orally to healthy adult subjects. The study protocol, informed consent form, and appropriate related documents were approved by the institutional review board, and all subjects provided written informed consent prior to participation in the study.
In this study, sequential ascending single doses were administered to 4 cohorts of 8 participants (6 actives and 2 placebos per cohort, in cohorts 1, 2 and 3 following a randomization 6:2 and in cohort 4 with a 1:1 randomization for the two sentinel participants. In the morning, after at least 10 hours of fasting overnight, eight healthy adult subjects (male or female aged 18 to 45), were orally administered metopimazine (or a matching placebo). Cohort 1-4 received a matching placebo or ascending doses of Vogalene (metopimazine) capsules at the doses of 15 mg, 30 mg, 45 mg, or 60 mg, respectively. […] Plasma concentrations of metopimazine, metopimazine acid and metopimazine sulfoxide were quantified using LC-MS/MS methods. […]

[2] = Incubation of MPZ in human intestine S9; format: in vitro ADME; settings: human intestine S9 1 mg/mL, 2.5 μM MPZ, 60 min
Procedure: Initial experiment was conducted with S9 fractions from liver and intestine to assess the role of liver and intestinal enzymes in the metabolism of MPZ. The reaction mixture contained 2.5 μM MPZ, pooled human liver or intestine S9 fraction (1 mg/mL S9 protein), 100 mM KPi buffer (pH 7.4). The reaction mixture was pre-incubated for 3-5 min at 37° C. in a humidified incubator filled with 5% CO2 followed by the addition of NADPH (1 mM) to initiate the reaction. The reaction was incubated for 0 and 60 min. The total percentage of organic solvent in incubation mixture was <0.1%. The reactions were terminated by the addition of sample mixture of acetonitrile and ethanol (90:10, v/v). The positive control substrate, 7-EC, was incubated in triplicate in an identical manner as MPZ for S9 fractions.

human D2 receptor = human D2 receptor (Homo sapiens, UniProt P14416); settings: relative to MPZ; cited from earlier work
Chain of human D2 receptor (P14416 whole entry): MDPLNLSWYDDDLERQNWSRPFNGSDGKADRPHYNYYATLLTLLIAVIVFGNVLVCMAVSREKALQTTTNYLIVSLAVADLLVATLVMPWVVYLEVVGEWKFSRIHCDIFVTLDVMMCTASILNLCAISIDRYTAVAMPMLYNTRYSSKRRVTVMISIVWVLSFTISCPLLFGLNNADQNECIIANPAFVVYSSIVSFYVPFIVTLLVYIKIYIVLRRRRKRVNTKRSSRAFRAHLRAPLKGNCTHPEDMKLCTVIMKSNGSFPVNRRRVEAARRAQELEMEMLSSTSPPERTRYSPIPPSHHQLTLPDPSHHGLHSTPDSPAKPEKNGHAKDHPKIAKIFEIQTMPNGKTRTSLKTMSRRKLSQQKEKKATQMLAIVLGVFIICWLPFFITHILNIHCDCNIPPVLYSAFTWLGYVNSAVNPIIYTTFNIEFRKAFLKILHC

microsomal FMOs in HLM = assay: Incubation with HLM for FMO (pH 8.4, methimazole, heat); format: in vitro ADME, human; settings: 1 and 10 μM MPZ, NADPH, with and without methimazole, heat-pretreated control
Procedure: MPZ, at 1.0 and 10.0 μM, was incubated with HLM or HKM to determine the contribution of microsomal FMOs on the metabolism of MPZ.
A reaction mixture containing KPi buffer (pH 8.4), HLM or HKM (0.5 mg/mL protein) and MPZ (1.0 and 10.0 μM) was pre-incubated for 3-5 minutes at 37° C. The reaction was initiated by the addition of NADPH into the reaction mixture. Reaction was conducted for 0 and 60 min. A positive control (benzydamine, 100 μM) was incubated in duplicate for 0 and 20 minutes. Parallel incubation was conducted by adding 1 mM methimazole, a non-specific FMO inhibitor, under identical conditions. Heat inactivated microsomes (50° C. for at least 5 minutes) was incubated under identical conditions negative control. All other procedures were the same as described previously.

SMILES | Tmax [1] | metabolism of MPZ [2] | less potent at the human D2 receptor compared to the parent (human D2 receptor) | MPZA formation in HLM at pH 8.4 (microsomal FMOs in HLM)
CS(=O)(=O)c1ccc2c(c1)N(CCCN1CCC(C(N)=O)CC1)c1ccccc1S2 [MPZ, metopimazine] | 3 h | virtually no metabolism |  | 
CS(=O)(=O)c1ccc2c(c1)N(CCCN1CCC(C(=O)O)CC1)c1ccccc1S2 [MPZA, metopimazine acid] |  |  | about 200 fold | Considerable formation of MPZA was observed with all conditions
